Experimental findings from patent publication US7205403B2, “8-Heteroaryl xanthine adenosine A2B receptor antagonists” (King Pharmaceuticals Research and Development, Inc., priority 2002, dated 2007) are described below.

Where two headings read alike, the source gives them in different places.

Test [1] addresses T1, human A1 adenosine receptor (Homo sapiens, UniProt P30542).
T1 construct: expressed in transfected cells; host or cells: CHO cells (membranes)
T1 sequence (P30542 1-326): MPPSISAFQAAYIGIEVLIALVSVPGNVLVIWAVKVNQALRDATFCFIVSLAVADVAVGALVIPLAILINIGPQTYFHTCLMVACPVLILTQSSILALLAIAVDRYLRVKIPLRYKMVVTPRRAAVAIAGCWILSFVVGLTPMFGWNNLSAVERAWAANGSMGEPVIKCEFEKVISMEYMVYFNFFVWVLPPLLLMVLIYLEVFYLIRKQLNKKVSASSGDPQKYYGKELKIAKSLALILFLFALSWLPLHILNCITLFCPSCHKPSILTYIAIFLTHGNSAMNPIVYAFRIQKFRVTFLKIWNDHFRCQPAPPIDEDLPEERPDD
The experiment in a line: [3H]DPCPX binding to human A1 receptors expressed in CHO cells. How it is done:
(§1) The cells were grown adherently and maintained in Dulbecco's modified Eagle's medium with nutrient mixture F12 without nucleosides at 37° C. in 5% CO2/95% air. The cells were washed with phosphate-buffered saline and scraped off flasks in ice cold hypotonic buffer ([…] Tris HCl, 2 mM EDTA, pH 7.4). The cell suspension was homogenized with a Polytron and the homogenate was centrifuged for 30 minutes at 48,000 g. The resultant membrane pellet was re-suspended in 50 mM Tris HCl buffer at pH 7.4 for A1 adenosine receptors; in 50 mM Tris HCl 10 mM MgCl, at pH 7.4 for A2A adenosine receptors; in 50 mM Tris HCl, 10 mM MgCl2, 1 mM EDTA, at pH 7.4 for A3 adenosine receptors and were utilized for binding assays.
Displacement experiments were performed for 120 minutes at 25° C. in 200 μl of buffer containing 1 nM ^3H]-DPCPX 20 μl of diluted membranes (50 μg of protein/assay) and at least 6 to 8 different concentrations of examined compounds.
(§2) The filter bound radioactivity was counted on Top Count (efficiency 57%) with Micro-Scint 20.
(§3) The filter bound radioactivity was counted on a Top Count brand Microplate Scintillation Counter (efficiency 57%) with Micro-Scint 20. […] Inhibitory binding constant. […] Results and Discussion

Test [2] has as its target T2, human A2B adenosine receptor (Homo sapiens, UniProt P29275).
T2 sequence (P29275 1-332): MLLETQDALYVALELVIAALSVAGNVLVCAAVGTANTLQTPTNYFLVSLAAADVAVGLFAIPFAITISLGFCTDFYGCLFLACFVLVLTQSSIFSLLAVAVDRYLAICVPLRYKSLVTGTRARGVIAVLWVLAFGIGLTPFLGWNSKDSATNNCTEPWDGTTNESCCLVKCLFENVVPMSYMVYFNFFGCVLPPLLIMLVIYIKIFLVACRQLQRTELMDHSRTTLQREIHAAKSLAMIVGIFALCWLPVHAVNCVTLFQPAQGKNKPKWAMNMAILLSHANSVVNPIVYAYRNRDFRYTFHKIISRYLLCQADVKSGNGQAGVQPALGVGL
The test is described as follows: [3H]DPCPX binding to human A2B receptors expressed in HEK293 cells. On the set-up: host or cells: HEK 293 cells (membranes). The conditions noted are these: geometric mean (95% confidence interval); >1000 = no appreciable binding; read-out: Ki, [3H]DPCPX binding to human A2B receptors expressed in HEK293 cells. How it is done: HEK 293 cells transfected with the human recombinant A2B adenosine receptor were obtained from Receptor Biology, Inc. (Beltsville, Md. USA).
Binding of 1 [^3H]-DPCPX to HEK 293 cells transfected with the human recombinant A2B adenosine receptors was performed according to the method described by Varani et al., 2000. In particular, assays were carried out for 60 minutes at 25° C. in 100 μl of […] Tris HCl buffer, […] MgCl2, 1 mM EDTA, 0.1 mM benzamidine pH 7.4, 2 IU/ml adenosine deaminase containing 40 nM [^3H]-DPCPX, diluted membranes (20 μg of protein/assay) and at least 6–8 different concentration of tested compounds.
as §2, §3

Test [3] concerns the target T3, human A2A adenosine receptor (Homo sapiens, UniProt P29274).
T3 construct: expressed in transfected cells; host or cells: CHO cells (membranes)
The test is described as follows: [3H]ZM241385 binding to human A2A receptors expressed in CHO cells. As to conditions: read-out: Ki, [3H]ZM241385 binding to human A2A receptors expressed in CHO cells. The method, then: as §1, §2, §3

The target of test [4] is T4, human A3 adenosine receptor (Homo sapiens, UniProt P0DMS8).
T4 construct: expressed in transfected cells; host or cells: CHO cells (membranes)
T4 sequence (P0DMS8 1-318): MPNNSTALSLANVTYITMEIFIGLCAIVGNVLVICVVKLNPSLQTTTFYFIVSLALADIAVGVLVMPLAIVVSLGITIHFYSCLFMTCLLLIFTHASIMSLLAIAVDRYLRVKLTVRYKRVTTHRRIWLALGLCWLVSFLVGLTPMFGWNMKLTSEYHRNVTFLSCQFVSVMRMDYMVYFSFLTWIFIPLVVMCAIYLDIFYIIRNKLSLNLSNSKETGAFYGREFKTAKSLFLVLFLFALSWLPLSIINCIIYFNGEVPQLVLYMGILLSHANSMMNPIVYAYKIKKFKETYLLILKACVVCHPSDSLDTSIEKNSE
The experiment in a line: [3H]MRE3008F20 binding to human A3 receptors expressed in CHO cells. The method, then: as §1
Binding of [^3H]-MRE3008-F20 to CHO cells transfected with the human recombinant A3 adenosine receptors was performed according to Varani et al., 2000. Competition experiments were carried out in duplicate in a final volume of 250 μl in test tubes containing 1 nM [^3H]-MRE3008-F20, 50 mM Tris HCl buffer, […] MgCl2, pH 7.4 and 100 μl of diluted membranes (50 μg of protein/assay) and at least 6–8 different concentrations of examined ligands for 120 minutes at 4° C.
as §2, §3

Where [5] appears, read: geometric mean (95% confidence interval), >1000 = no appreciable binding.

T3 sequence (P29274 whole entry): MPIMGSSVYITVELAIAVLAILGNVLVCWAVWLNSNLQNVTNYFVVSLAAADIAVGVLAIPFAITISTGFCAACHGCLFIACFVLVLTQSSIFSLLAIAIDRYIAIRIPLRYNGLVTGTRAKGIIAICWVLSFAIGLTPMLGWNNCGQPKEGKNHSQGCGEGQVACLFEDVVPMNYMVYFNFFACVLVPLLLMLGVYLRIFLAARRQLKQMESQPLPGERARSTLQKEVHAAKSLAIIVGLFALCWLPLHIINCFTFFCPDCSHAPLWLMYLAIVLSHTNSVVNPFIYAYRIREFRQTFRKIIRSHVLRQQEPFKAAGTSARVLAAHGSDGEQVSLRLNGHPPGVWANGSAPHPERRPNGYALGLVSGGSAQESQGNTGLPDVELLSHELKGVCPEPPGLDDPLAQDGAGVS

Take `CCCn1c(=O)c2[nH]c(-c3cc(OCC(=O)Nc4ccc(C(C)CC)cc4)nn3C)nc2n(CCC)c1=O` (stereo not drawn) [AS91, 1,3-di-n-propyl-8-{5-[(4-sec-butyl-phenylcarbamoyl)-methoxy]-2-methyl-2H-pyrazole-3-yl}-xanthine]: the values for the inhibition constant (Ki) in test [1] (setting [5]) and in test [2] were 1000 nM and 74 nM, respectively.

Regarding `CCCn1c(=O)c2[nH]c(-c3ccc(O)nc3)nc2n(CCC)c1=O` [AS103, 1,3-di-n-propyl-8-(2-hydroxypyridin-5-yl)-xanthine], the Ki (commonly a dissociation constant, usually derived from enzyme kinetics or from competition with a known ligand) in test [1] came to 81 nM; in test [3], 606 nM; in test [4], 116 nM; in test [2], 4.9 nM.

As for `CCCn1c(=O)c2[nH]c(-c3cc(OCC(=O)Nc4ccc(Cl)c(Cl)c4)nn3C)nc2n(CCC)c1=O` [AS100, 1,3-di-n-propyl-8-{5-[(3,4-chloro-phenylcarbamoyl)-methoxy]-2-methyl-2H-pyrazole-3-yl}-xanthine], the Ki is 300 nM in test [1] (setting [5]), more than 1000 nM in test [3], more than 1000 nM in test [4] and 16 nM in test [2].

Turning to `CCCn1c(=O)c2[nH]c(-c3cc(N)nn3C)nc2n(CCC)c1=O` [AS3, 8-(3-amino-1-methyl-1H-pyrazol-5-yl)-1,3-dipropyl-3,7-dihydro-1H-purine-2,6-dione], the Ki in test [1] (setting [5]) was 201 nM; in test [3], more than 1000 nM; in test [4], more than 1000 nM; in test [2], 235 nM.

In the case of `CCCn1c(=O)c2c(nc(/C=C/c3cc(C(=O)OCC)n(C)c3)n2C)n(CCC)c1=O` [AS33, ethyl 4-[(E)-2-(7-methyl-1,3-dipropyl-2,6-dioxo-2,3,6,7-tetrahydro-1H-purin-8-yl)vinyl]-1-methyl-1H-pyrrole-2-carboxylate], the Ki in test [1], in test [3], in test [4] and in test [2] was more than 1000 nM throughout.

For `CCCn1c(=O)c2[nH]c(-c3cc(OCC(=O)Nc4ccc(C)c(C)c4)nn3C)nc2n(CCC)c1=O` [AS99, 1,3-di-n-propyl-8-{5-[(3,4-dimethyl-phenylcarbamoyl)-methoxy]-2-methyl-2H-pyrazole-3-yl}-xanthine], the Ki in test [1] (setting [5]) is 700 nM; in test [3], more than 1000 nM; in test [4] it was more than 1000 nM; in test [2], 10 nM.

Consider `CCCn1c(=O)c2[nH]c(-c3cc(NC(=O)CCCNC(=O)OC(C)(C)C)nn3C)nc2n(CCC)c1=O` [AS9, tert-butyl 4-{[5-(2,6-dioxo-1,3-dipropyl-2,3,6,7-tetrahydro-1H-purin-8-yl)-1-methyl-1H-pyrazol-3-yl]amino}-4-oxobutylcarbamate], for which the Ki in test [1], in test [3], in test [4] and in test [2] was more than 1000 nM in each case.

`CCCn1c(=O)c2[nH]c(-c3cc(NC(=O)Nc4ccc(N(C)C)cc4)nn3C)nc2n(CCC)c1=O` [AS53, N-[4-(dimethylamino)phenyl]-N'-[5-(2,6-dioxo-1,3-dipropyl-2,3,6,7-tetrahydro-1H-purin-8-yl)-1-methyl-1H-pyrazol-3-yl]urea]: the Ki in test [1] (setting [5]) is 2410 nM; in test [3], more than 1000 nM; in test [4] it was more than 1000 nM; in test [2], 59 nM.

Consider `CCCn1c(=O)c2[nH]c(-c3cc(NC(=O)Cc4cccc(Cl)c4)nn3C)nc2n(CCC)c1=O` [AS24, N-[5-(2,6-dioxo-1,3-dipropyl-2,3,6,9-tetrahydro-1H-purin-8-yl)-1-methyl-1H-pyrazol-3-yl]-2-(3-chlorophenyl)acetamide], for which the Ki was 4480 nM in test [1] (setting [5]), more than 1000 nM in test [3], more than 1000 nM in test [4] and 160 nM in test [2].

For the compound `CCCn1c(=O)c2[nH]c(-c3cc(NC(=O)Cc4cccc(F)c4)nn3C)nc2n(CCC)c1=O` [AS25, N-[5-(2,6-dioxo-1,3-dipropyl-2,3,6,9-tetrahydro-1H-purin-8-yl)-1-methyl-1H-pyrazol-3-yl]-2-(3-fluorophenyl)acetamide], the Ki was 3230 nM in test [1] (setting [5]), more than 1000 nM in test [3], more than 1000 nM in test [4] and 50 nM in test [2].

For `CCCn1c(=O)c2c(nc(/C=C/c3cc(COC(=O)c4ccccc4)on3)n2C)n(CCC)c1=O` [AS20, {3-[(E)-2-(1,3-dipropyl-7-methyl-2,6-dioxo-2,3,6,7-tetrahydro-1H-purin-8-yl)vinyl]isoxazol-5-yl}methyl benzoate], the Ki in test [1], in test [3], in test [4] and in test [2] was more than 1000 nM throughout.

Regarding `CCCn1c(=O)c2[nH]c(-c3cc(NC(=O)Nc4cccc(OC)c4)nn3C)nc2n(CCC)c1=O` [AS55, N-[5-(2,6-dioxo-1,3-dipropyl-2,3,6,7-tetrahydro-1H-purin-8-yl)-1-methyl-1H-pyrazol-3-yl]-N'-(3-methoxyphenyl)urea], the Ki in test [1] (setting [5]) was 1990 nM; in test [3] it was more than 1000 nM; in test [4], more than 1000 nM; in test [2], 90 nM.

In the case of `CCCn1c(=O)c2[nH]c(-c3cc(OCC(=O)N4CCN(Cc5ccccc5)CC4)nn3C)nc2n(CCC)c1=O` [AS90], the results for the Ki in test [1] (setting [5]) and in test [2] were 810 nM and 85 nM, respectively.

`CCCn1c(=O)c2[nH]c(-c3cc(OCC(=O)Nc4ccncc4)nn3C)nc2n(CCC)c1=O` [AS89]: the Ki was determined as 955 nM in test [1] (setting [5]) and 41 nM in test [2].

Turning to `CCCn1c(=O)c2[nH]c(-c3cc(N)n(C)n3)nc2n(CCC)c1=O` [AS37, 8-(5-amino-1-methyl-1H-pyrazol-3-yl)-1,3-dipropyl-3,7-dihydro-1H-purine-2,6-dione], the Ki in test [1] (setting [5]) is 140 nM; in test [2], 58 nM.

Turning to `CC(C)Cn1c(=O)c2nc(-c3cc(OCC(=O)Nc4ccc(F)cc4)nn3C)[nH]c2n(CC(C)C)c1=O` [AS66, 2-{[5-(1,3-diisobutyl-2,6-dioxo-2,3,6,9-tetrahydro-1H-purin-8-yl)-1-methyl-1H-pyrazol-3-yl]oxy}-N-(4-fluorophenyl)acetamide], the Ki in test [1] (setting [5]) was 467 nM; in test [2], 303 nM.

Consider `CCCn1c(=O)c2[nH]c(-c3cc(OCC(=O)N4CCN(C)CC4)nn3C)nc2n(CCC)c1=O` [AS87, 1,3-di-n-propyl-8-{5-[2-Oxo-2-(4-methyl-piperazin-1-yl)-ethoxy]-2-methyl-2H-pyrazole-3-yl}-xanthine], for which the Ki is more than 1000 nM in test [3], more than 1000 nM in test [4] and 122 nM in test [2].
